What is called IC50 is the midpoint of a concentration-inhibition curve.

In this assay the target is T1, human CCR6 (Homo sapiens, UniProt P51684).
T1 construct: expressed in transfected cells; host or cells: HEK-293
T1 sequence (P51684 1-374): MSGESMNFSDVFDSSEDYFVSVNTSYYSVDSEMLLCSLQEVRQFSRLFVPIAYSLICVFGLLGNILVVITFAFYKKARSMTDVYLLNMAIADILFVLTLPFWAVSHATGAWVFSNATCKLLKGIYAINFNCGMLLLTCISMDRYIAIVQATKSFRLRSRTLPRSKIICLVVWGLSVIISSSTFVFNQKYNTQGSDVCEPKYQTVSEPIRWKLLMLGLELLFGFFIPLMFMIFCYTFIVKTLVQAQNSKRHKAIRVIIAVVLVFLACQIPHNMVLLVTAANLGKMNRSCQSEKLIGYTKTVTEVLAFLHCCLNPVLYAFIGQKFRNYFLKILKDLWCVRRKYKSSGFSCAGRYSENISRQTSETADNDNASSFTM
Briefly: FLIPR assay (inhibition of CCL20-induced calcium signal). The assay is classed as cell-based. The conditions noted are these: HEK-293 cells expressing human CCR6; mean values where determined several times; read-out: FLIPR IC50. Here is the method:
FLIPR assay: The bioactivity of compounds is tested in a fluorometric imaging plate reader (FLIPR: Molecular Devices) using engineered HEK-293 cells expressing the human CCR6 (GenBank: AY242126). Frozen cells are plated on Poly-L-Lysine precoated 384-well plates 2 days prior to bioassay in DMEM medium supplemented with 10% FCS and 1% Penicillin-Streptomycin. […] This buffer, but lacking the dye, is also used for washing and compound dilution steps (assay buffer). Cells are washed free of excess dye with a wash-station (Biotek), leaving 40 microliter of assay buffer at the end. Cells were incubated for 15 minutes at room temperature in the dark, before adding compounds. Stock solutions of test compounds are made up at a concentration of 10 mM in DMSO, and serially diluted first in DMSO and then transferred in assay buffer to concentrations required for inhibition dose response curves. After a 45-minute incubation period in assay buffer at room temperature, 10 microliters of each compound dilution are transferred from a compound plate to the plate containing the recombinant cells in the FLIPR instrument according to the manufacturer's instructions. After cells and compounds were preincubated for 30 minutes at room temperature in the dark, 10 microliter agonist CCL20 (Peprotech) at a final concentration of 10 nM is added, again using the FLIPR instrument. Changes in fluorescence are monitored before and after addition of the test compounds and agonist. Emission peak values above base level after CCL20 addition are exported after base line subtraction.
The calculated IC50 values may fluctuate depending on the daily assay performance. Fluctuations of this kind are known to those skilled in the art.
`CC(C)c1ccc([C@](O)(c2cncc(-c3nc(C4CCN(C(=O)OCc5ccccc5)CC4)no3)c2)C2(C)CN(C)C2)cc1` [Example 341]: the IC50 was found to be 66.6 nM. Take `C=C(C)c1cncc(C(O)(c2ccc(C(C)C)cc2)C2(C)CN(C)C2)c1` (stereo not drawn) [Example 286]: the IC50 was 36.3 nM.

Turning to `CC(=O)N1CCC(F)(c2nc(-c3cncc([C@@](O)(c4ccc(C(C)C)cc4)C4(C)CN(C)C4)c3)no2)CC1` [Example 422], the IC50 came to 66.7 nM.

`CC(C)c1ccc([C@](O)(c2cncc(CCC(C)(O)c3cccc(F)c3)c2)C2(C)CN(C)C2)cc1` (stereo partly drawn) [Example 67]: the IC50 was 11.8 nM. For `CC(C)c1ccc([C@](O)(c2cncc(-c3nc(COC(C)(C)C)no3)c2)C2(C)CN(C)C2)cc1` [Example 520] the value was 62.6 nM; for `CC(=O)N1CCC(c2nc(-c3cncc([C@@](O)(c4ccc(C(C)C)c(F)c4)C4(C)CN(C)C4)c3)no2)CC1` [Example 552], 76.8 nM. The value for `COCCOc1cncc(C(O)(c2ccc(C(C)C)cc2)C2(C)CN(C)C2)c1` (stereo not drawn) [Example 247] was 250 nM; that for `CC(C)c1ccc([C@](O)(c2cncc(CCC(C)(O)c3ccccn3)c2)C2(C)CN(C)C2)cc1` (stereo partly drawn) [Example 415] was 61.9 nM.

`CC(C)c1ccc([C@](O)(c2cncc(-c3noc(C(C)C)n3)c2)C2(C)CN(C)C2)cc1` [Example 507]: the IC50 was 32.7 nM. For `CN1CC(C)([C@](O)(c2ccc(C34CC(C3)C4)cc2)c2cncc(-c3noc(C(C)(C)O)n3)c2)C1` [Example 549] the value was 58.2 nM; for `CCc1ccc([C@](O)(c2cncc(N3C[C@@H]4C[C@H]3CO4)c2)C2(C)CN(C)C2)cc1` [Example 244], 274 nM; for `CC(=O)N1CCC(CC#Cc2cncc([C@@](O)(c3ccc(C(C)C)cc3)C3(C)CN(C)C3)c2)CC1` [Example 600], 45.7 nM. The value for `CC(C)c1ccc([C@](O)(c2cncc(CC(F)(F)CO)c2)C2(C)CN(C)C2)cc1` [Example 321, 3-{5-[(R)-(1,3-Dimethyl-azetidin-3-yl)-hydroxy-(4-isopropyl-phenyl)-methyl]-pyridin-3-yl}-2,2-difluoro-propan-1-ol] was 273 nM; that for `CC(C)c1ccc([C@](O)(c2cncc(-c3noc(C4CCC(O)CC4)n3)c2)C2(C)CN(C)C2)cc1` (stereo partly drawn) [Example 111] was 43 nM; that for `CC(C)c1ccc([C@](O)(c2cncc(N3CC(c4cccc(C(C)C)n4)CC3=O)c2)C2(C)CN(C)C2)cc1` (stereo partly drawn) [Example 674] was 25.9 nM.

On to `CN1CC(C)([C@@](O)(c2cncc(-c3noc(C(C)(C)O)n3)c2)c2ccc3sccc3c2)C1` [Example 541], for which the IC50 was 452 nM. On to `CN1CC(C)([C@](O)(c2ccc(S(F)(F)(F)(F)F)cc2)c2cncc(-c3noc(C(C)(C)O)n3)c2)C1` [Example 538], for which the IC50 was 145 nM. The value for `COc1ccccc1C(C)(O)CCc1cncc([C@@](O)(c2ccc(C(C)C)cc2)C2(C)CN(C)C2)c1` (stereo partly drawn) [Example 69] was 16.1 nM. For `CC(C)c1ccc([C@](O)(c2cncc(N3CCC(C(C)C)C3=O)c2)C2(C)CN(C)C2)cc1` (stereo partly drawn) [Example 208] the value was 38.4 nM; for `CC(C)c1ccc([C@](O)(c2cncc(N3CC4(CCC(F)(F)CC4)OC3=O)c2)C2(C)CN(C)C2)cc1` [Example 201], 159 nM; for `Cc1cnc(-c2cncc(C(O)(c3ccc(C(C)C)cc3)C3(C)CN(C)C3)c2)s1` (stereo not drawn) [Example 271, (1,3-Dimethyl-azetidin-3-yl)-(4-isopropyl-phenyl)-[5-(5-methyl-thiazol-2-yl)-pyridin-3-yl]-methanol], 36.5 nM. The value for `CC(C)c1ccc([C@](O)(c2cncc(N3CCC(O)(C4CC4)C3)c2)C2(C)CN(C)C2)cc1` (stereo partly drawn) [Example 173] was 77.9 nM; that for `Cc1ncc(C(C)(O)C#Cc2cncc([C@@](O)(c3ccc(C(C)C)cc3)C3(C)CN(C)C3)c2)s1` (stereo partly drawn) [Example 618] was 23.3 nM; that for `CC(=O)N1CCC(c2nc(-c3cncc([C@@](O)(c4ccc(C(C)C)cc4)C4(F)CN(C5CC5)C4)c3)no2)CC1` [Example 448, 1-[4-(3-{5-[(S)-(1-Cyclopropyl-3-fluoro-azetidin-3-yl)-hydroxy-(4-isopropyl-phenyl)-methyl]-pyridin-3-yl}-[1,2,4]oxadiazol-5-yl)-piperidin-1-yl]-ethanone] was 35.2 nM.

With `CC(C)c1ccc([C@](O)(c2cncc(C#CC(C)(O)c3ncccn3)c2)C2(C)CN(C)C2)cc1` (stereo partly drawn) [Example 38], the IC50 stood at 130 nM. The value for `CC(C)c1ccc([C@](O)(c2cncc(C(=O)NC3CCOCC3)c2)C2(C)CN(C)C2)cc1` [Example 308] was 515 nM; that for `CC1CN(Cc2noc(-c3cncc([C@@](O)(c4ccc(C(C)C)cc4)C4(C)CN(C)C4)c3)n2)CC(C)O1` (stereo partly drawn) [Example 90] was 163 nM; that for `CN1CC(C)([C@](O)(c2ccc(OC3CCC3)cc2)c2cncc(-c3noc(C(C)(C)O)n3)c2)C1` [Example 574] was 1340 nM. Take `CC(C)c1ccc([C@](O)(c2cncc(C#CC(C)(C)S(=O)(=O)C3CC3)c2)C2(C)CN(C)C2)cc1` [Example 608]: the IC50 came out at 43.5 nM. For `CN1CC(C)([C@](O)(c2ccc(CC(F)(F)F)cc2)c2cncc(-c3noc(C(C)(C)O)n3)c2)C1` [Example 572] the value was 149 nM; for `CC(C)C(=O)NC(C)(C)C#Cc1cncc([C@@](O)(c2ccc(C(C)C)cc2)C2(C)CN(C)C2)c1` [Example 589], 154 nM. With `CN1CC(C)([C@@](O)(c2cncc(-c3noc(C(C)(C)O)n3)c2)c2ccc3ccccc3c2)C1` [Example 533], the IC50 was found to be 1020 nM. The value for `CN1CC(C)([C@](O)(c2ccc(C3CCC3)cc2)c2cncc(-c3noc(C(C)(C)O)n3)c2)C1` [Example 557] was 46.3 nM; that for `CC(C)c1ccc([C@](O)(c2ccnc(OCC3CCOCC3)c2)C2(C)CN(C)C2)cc1` [Example 277, (S)-(1,3-Dimethyl-azetidin-3-yl)-(4-isopropyl-phenyl)-[2-(tetrahydro-pyran-4-ylmethoxy)-pyridin-4-yl]-methanol] was 42.2 nM; that for `CCN1CC(C)([C@](O)(c2ccc(OC(F)(F)F)cc2)c2cncc(N3CCCC3)c2)C1` [Example 3, (R)-(1-Ethyl-3-methyl-azetidin-3-yl)-(5-pyrrolidin-1-yl-pyridin-3-yl)-(4-trifluoromethoxy-phenyl)-methanol] was 28 nM.

On to `CC(C)c1ccc([C@](O)(c2cncc(-c3noc(C4CCNC(=O)C4)n3)c2)C2(C)CN(C)C2)cc1` (stereo partly drawn) [Example 362], for which the IC50 worked out at 90 nM. For `COc1cc(C(C)(O)CCc2cncc([C@@](O)(c3ccc(C(C)C)cc3)C3(C)CN(C)C3)c2)ncn1` (stereo partly drawn) [Example 411] the value was 86.3 nM.

Turning to `CC(C)c1ccc([C@](O)(c2cncc(-c3noc(C4CCOCC4)n3)c2)C2(C)CN(C)C2)cc1` [Example 107], the IC50 is 54.3 nM. The value for `CC(C)c1ccc([C@](O)(c2cncc(-c3noc(C4(N(C)S(C)(=O)=O)CC4)n3)c2)C2(C)CN(C)C2)cc1` [Example 391] was 58.8 nM; that for `Cc1cc([C@@](C)(O)C#Cc2cncc([C@@](O)(c3ccc(C(C)C)cc3)C3(C)CN(C)C3)c2)ncn1` [Example 399] was 107 nM; that for `CC(C)c1ccc([C@](O)(c2cncc(N3CCC(O)(C(F)(F)F)C3)c2)C2(C)CN(C)C2)cc1` (stereo partly drawn) [Example 179] was 64.5 nM. For `CN1CC(C)([C@](O)(c2ccc(C3(C)CC3)cc2)c2cncc(N3CCCC3)c2)C1` [Example 184], the IC50 was 16.5 nM.

In the case of `CC(C)c1ccc([C@](O)(c2cncc(-c3nc(CC(C)(C)O)no3)c2)C2(C)CN(C)C2)cc1` [Example 102], the IC50 came out at 103 nM. For `CC(C)c1ccc([C@](O)(c2cncc(-c3noc(C4CC(O)C4)n3)c2)C2(C)CN(C)C2)cc1` (stereo partly drawn) [Example 123] the value was 46.9 nM. For `COc1nccc(C(C)(O)C#Cc2cncc([C@@](O)(c3ccc(C(C)C)cc3)C3(C)CN(C)C3)c2)n1` (single isomer, unassigned) [Example 623] the value was 44.9 nM; for `COc1cc(C(C)(O)C#Cc2cncc([C@@](O)(c3ccc(C(C)C)cc3)C3(C)CN(C)C3)c2)nc(OC)n1` (single isomer, unassigned) [Example 628], 20.2 nM; for `CC(C)c1ccc([C@](O)(c2cncc(C#CC(C)(C)S(C)(=O)=O)c2)C2(C)CN(C)C2)cc1` [Example 605], 78.6 nM. The value for `CC(=O)N1CCCC(Cc2nc(-c3cncc([C@@](O)(c4ccc(C(C)C)cc4)C4(C)CN(C)C4)c3)no2)C1` (stereo partly drawn) [Example 458] was 99 nM.

These data come from patent publication US12617773B2, “Azetidin-3-ylmethanol derivatives as CCR6 receptor modulators” (Idorsia Pharmaceuticals Ltd, priority 2020, dated 2026).
